According to paper doi:10.1101/2025.10.24.684310v1 (biorxiv, 2025):

What was measured:
in vitro [1] = settings: PAMPA
in vitro [2] = settings: human, liver microsomes
in vitro [3] = settings: human, liver microsomes; remark: listed apart in the source
in vitro [4] = settings: human, liver microsomes; remark: listed apart in the source
in vitro [5] = settings: PAMPA; remark: listed apart in the source
CYP1A2 = biological target: T1, CYP1A2 (Homo sapiens, UniProt P05177); experiment: in vitro
T1 sequence (P05177 1-516): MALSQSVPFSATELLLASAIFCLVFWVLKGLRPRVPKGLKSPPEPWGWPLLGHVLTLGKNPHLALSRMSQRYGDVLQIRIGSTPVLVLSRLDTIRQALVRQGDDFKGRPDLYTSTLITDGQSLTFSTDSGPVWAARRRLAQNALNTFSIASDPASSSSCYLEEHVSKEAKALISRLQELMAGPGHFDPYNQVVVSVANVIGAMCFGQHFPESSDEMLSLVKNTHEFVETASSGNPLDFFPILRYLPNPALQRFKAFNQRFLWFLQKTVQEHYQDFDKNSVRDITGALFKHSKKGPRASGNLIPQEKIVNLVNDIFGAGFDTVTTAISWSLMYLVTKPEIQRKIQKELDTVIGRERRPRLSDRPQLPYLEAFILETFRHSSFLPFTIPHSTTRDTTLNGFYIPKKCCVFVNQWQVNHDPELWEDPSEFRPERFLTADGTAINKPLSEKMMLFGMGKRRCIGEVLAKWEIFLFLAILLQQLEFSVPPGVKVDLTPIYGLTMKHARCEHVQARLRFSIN

CYP2C9 = CYP2C9 (Homo sapiens, UniProt P11712); experiment: in vitro
CYP2C9, sequence (P11712 whole entry): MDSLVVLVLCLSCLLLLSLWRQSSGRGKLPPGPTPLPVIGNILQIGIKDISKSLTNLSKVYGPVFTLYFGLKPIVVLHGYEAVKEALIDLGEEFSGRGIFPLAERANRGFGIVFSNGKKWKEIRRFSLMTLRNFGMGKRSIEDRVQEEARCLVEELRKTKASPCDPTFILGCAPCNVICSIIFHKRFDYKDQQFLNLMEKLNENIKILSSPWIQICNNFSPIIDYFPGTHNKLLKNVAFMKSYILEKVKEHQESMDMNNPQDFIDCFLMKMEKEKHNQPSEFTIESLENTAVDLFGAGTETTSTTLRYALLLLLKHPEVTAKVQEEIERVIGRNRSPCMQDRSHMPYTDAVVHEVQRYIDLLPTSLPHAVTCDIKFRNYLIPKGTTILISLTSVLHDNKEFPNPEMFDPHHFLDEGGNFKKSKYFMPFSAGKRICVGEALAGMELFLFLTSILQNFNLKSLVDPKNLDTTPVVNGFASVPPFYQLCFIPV

CYP2C19 = CYP2C19 (Homo sapiens, UniProt P33261); experiment: in vitro
CYP2C19, sequence (P33261 whole entry): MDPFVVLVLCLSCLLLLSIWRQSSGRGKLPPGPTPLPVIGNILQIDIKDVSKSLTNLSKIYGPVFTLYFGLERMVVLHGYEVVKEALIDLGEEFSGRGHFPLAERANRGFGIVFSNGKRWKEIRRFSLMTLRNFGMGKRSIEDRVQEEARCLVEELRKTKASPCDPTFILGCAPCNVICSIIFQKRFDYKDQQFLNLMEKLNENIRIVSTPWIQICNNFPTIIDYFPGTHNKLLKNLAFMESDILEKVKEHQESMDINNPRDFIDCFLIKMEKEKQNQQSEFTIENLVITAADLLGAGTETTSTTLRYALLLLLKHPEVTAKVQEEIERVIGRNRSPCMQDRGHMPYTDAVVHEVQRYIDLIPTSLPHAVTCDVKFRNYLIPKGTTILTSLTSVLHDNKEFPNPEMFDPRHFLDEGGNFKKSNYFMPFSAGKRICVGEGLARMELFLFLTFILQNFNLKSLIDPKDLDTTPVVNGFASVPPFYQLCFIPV

CYP2D6 = CYP2D6 (Homo sapiens, UniProt P10635); experiment: in vitro
CYP2D6, sequence (P10635 whole entry): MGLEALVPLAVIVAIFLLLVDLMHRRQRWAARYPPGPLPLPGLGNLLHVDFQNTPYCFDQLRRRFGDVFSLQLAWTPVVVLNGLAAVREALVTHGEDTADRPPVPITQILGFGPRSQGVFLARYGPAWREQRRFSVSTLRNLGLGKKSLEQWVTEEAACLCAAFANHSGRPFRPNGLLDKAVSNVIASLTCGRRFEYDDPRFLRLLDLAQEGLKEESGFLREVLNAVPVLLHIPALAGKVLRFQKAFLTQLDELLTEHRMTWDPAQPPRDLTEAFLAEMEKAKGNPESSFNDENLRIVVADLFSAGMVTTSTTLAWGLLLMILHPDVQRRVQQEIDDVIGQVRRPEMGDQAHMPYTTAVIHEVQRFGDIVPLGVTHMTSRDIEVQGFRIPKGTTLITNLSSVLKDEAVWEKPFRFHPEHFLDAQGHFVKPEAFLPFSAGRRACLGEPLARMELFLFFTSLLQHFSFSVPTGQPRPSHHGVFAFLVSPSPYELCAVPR

hERG = hERG (Homo sapiens, UniProt Q12809, species not given); experiment: hERG channel inhibition; type: cell-based
hERG, sequence (Q12809 whole entry): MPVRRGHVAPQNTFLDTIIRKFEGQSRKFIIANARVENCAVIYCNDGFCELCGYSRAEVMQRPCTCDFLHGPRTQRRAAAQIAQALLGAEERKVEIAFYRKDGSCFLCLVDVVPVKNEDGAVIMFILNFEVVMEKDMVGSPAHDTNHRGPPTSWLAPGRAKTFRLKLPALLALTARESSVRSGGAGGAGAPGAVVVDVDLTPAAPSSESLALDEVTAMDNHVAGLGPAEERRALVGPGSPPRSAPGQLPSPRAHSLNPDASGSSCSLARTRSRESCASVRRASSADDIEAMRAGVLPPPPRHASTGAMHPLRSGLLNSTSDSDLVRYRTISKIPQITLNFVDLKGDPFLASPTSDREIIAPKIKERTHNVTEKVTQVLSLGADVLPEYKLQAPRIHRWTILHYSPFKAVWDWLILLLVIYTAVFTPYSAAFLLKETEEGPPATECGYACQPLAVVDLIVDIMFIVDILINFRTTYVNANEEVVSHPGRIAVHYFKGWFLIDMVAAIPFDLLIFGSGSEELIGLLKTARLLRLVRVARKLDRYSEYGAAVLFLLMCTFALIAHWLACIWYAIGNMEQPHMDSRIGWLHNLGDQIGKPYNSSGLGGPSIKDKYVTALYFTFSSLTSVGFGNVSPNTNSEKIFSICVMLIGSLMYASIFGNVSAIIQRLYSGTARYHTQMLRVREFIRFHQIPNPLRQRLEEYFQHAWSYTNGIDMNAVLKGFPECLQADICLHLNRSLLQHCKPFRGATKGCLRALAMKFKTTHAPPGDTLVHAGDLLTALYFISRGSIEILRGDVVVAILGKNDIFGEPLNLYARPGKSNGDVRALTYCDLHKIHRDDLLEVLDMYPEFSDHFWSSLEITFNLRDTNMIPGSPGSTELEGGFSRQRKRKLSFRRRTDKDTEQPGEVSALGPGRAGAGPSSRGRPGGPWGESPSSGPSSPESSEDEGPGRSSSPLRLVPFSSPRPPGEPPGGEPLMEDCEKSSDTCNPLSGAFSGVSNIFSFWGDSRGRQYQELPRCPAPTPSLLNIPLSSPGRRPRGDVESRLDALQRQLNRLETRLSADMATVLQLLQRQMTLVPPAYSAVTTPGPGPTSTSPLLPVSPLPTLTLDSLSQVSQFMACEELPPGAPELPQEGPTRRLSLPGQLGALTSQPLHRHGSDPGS

SMILES	Papp (in vitro [1])	Papp (in vitro [5])	further results
CCOC(=O)C1=C(C)NC(=S)NC1c1ccc(C)cc1 (stereo not shown) [T4]	10.3 ± 0.3 ×10⁻⁶ cm/s		
CCOC(=O)C1=C(C)NC(=S)NC1c1ccc(OCC)cc1 (stereo not shown) [T10]	0.1 ×10⁻⁶ cm/s		
CCOC(=O)C1=C(C)NC(=S)NC1c1ccccc1Cl (stereo not shown) [T9, Ethyl 4-(2-chlorophenyl)-6-methyl-2-thioxo-1,2,3,4-tetrahydropyrimidine-5-carboxylate]			remaining at 1 h (in vitro [2]): 82.4%; half-life (in vitro [3]): 3.69 h; microsomal CLint (in vitro [4]): 3 µL/min/mg
COC(=O)C1=C(C)NC(=O)NC1c1ccccc1 (stereo not shown) [U15, Methyl 6-methyl-2-oxo-4-phenyl-1,2,3,4-tetrahydropyrimidine-5-carboxylate]			remaining at 1 h (in vitro [2]): 93%; half-life (in vitro [3]): 10.7 h; microsomal CLint (in vitro [4]): 1.2 µL/min/mg
CCOC(=O)C1=C(C)NC(=S)NC1c1ccc(C(F)(F)F)cc1 (stereo not shown) [T6]	> 30 ×10⁻⁶ cm/s		
CC1=C(C(=O)Nc2ccc(Cl)cc2)C(c2ccccc2)NC(=S)N1 (stereo not shown) [CT1]		3.6 ± 0.1 ×10⁻⁶ cm/s	
CC1=C(C(=O)Nc2ccc(Cl)cc2)C(c2ccc(C)cc2)NC(=S)N1 (stereo not shown) [CT4]		4.6 ± 0.2 ×10⁻⁶ cm/s	
CC1=C(C(=O)Nc2ccc(Cl)cc2)C(c2ccc(C)cc2)NC(=O)N1 (stereo not shown) [CU4]		5.3 ± 0.2 ×10⁻⁶ cm/s	
CC1=C(C(=O)Nc2ccc(Cl)cc2)C(c2ccc(Cl)c(Cl)c2)NC(=S)N1 (stereo not shown) [CT5]		7.6 ± 1 ×10⁻⁶ cm/s	
CCOC(=O)C1=C(C)NC(=S)NC1c1ccc(OC)cc1 (stereo not shown) [T3, Ethyl 4-(4-methoxyphenyl)-6-methyl-2-thioxo-1,2,3,4-tetrahydropyrimidine-5-carboxylate]			inhibition at 1 µM (CYP1A2): -13.3 ± 2%; inhibition at 1 µM (CYP2C9): 3.7 ± 1.1%; inhibition at 1 µM (CYP2C19): 11.7 ± 4.5%; inhibition at 1 µM (CYP2D6): -3.2 ± 0.2%
CC1=C(C(=O)Nc2ccc(Cl)cc2)C(c2ccccc2)NC(=O)N1 (stereo not shown) [CU1]		9.5 ± 0.2 ×10⁻⁶ cm/s	
CC1=C(C(=O)Nc2ccc(Cl)cc2)C(c2ccc(Cl)cc2)NC(=O)N1 (stereo not shown) [CU2]		7.7 ± 0.2 ×10⁻⁶ cm/s	
CCOC(=O)C1=C(C)NC(=S)NC1c1ccc(OC)cc1 (stereo not shown) [T3]	8.1 ± 0.5 ×10⁻⁶ cm/s		IC50 (hERG): > 10 µM
COc1ccc(C2NC(=S)NC(C)=C2C(=O)Nc2ccc(Cl)cc2)cc1 (stereo not shown) [CT3]		3.4 ± 0.3 ×10⁻⁶ cm/s	
COc1ccc(C2NC(=O)NC(C)=C2C(=O)Nc2ccc(Cl)cc2)cc1 (stereo not shown) [CU3]		5.9 ± 0.2 ×10⁻⁶ cm/s	
COC(=O)C1=C(C)NC(=S)NC1c1cccc(OC)c1 (stereo not shown) [T14]	3.5 ± 0.6 ×10⁻⁶ cm/s		
CCOC(=O)C1=C(C)NC(=O)NC1c1ccc(F)cc1 (stereo not shown) [U14, Ethyl 4-(4-fluorophenyl)-6-methyl-2-oxo-1,2,3,4-tetrahydropyrimidine-5-carboxylate]			remaining at 1 h (in vitro [2]): 74.1%; half-life (in vitro [3]): 2.47 h; microsomal CLint (in vitro [4]): 5.4 µL/min/mg
CC1=C(C(=O)Nc2ccc(Cl)cc2)C(c2ccc(Cl)cc2)NC(=S)N1 (stereo not shown) [CT2]		7.1 ± 0.1 ×10⁻⁶ cm/s	

More lines, main results first:

Papp (in vitro [1])	Papp (in vitro [5])	SMILES	further results
11.5 ± 0.4 ×10⁻⁶ cm/s		CCOC(=O)C1=C(C)NC(=O)NC1c1ccc(C(F)(F)F)cc1 (stereo not shown) [U6]	
18.4 ± 1.6 ×10⁻⁶ cm/s		CCOC(=O)C1=C(C)NC(=S)NC1c1ccc(F)cc1 (stereo not shown) [T13]	
2 ± 0.2 ×10⁻⁶ cm/s		COC(=O)C1=C(C)NC(=O)NC1c1cccc(Br)c1 (stereo not shown) [U12]	
16.2 ± 0.5 ×10⁻⁶ cm/s		CCOC(=O)C1=C(C)NC(=S)NC1c1ccc(Cl)c(Cl)c1 (stereo not shown) [T5]	
12.2 ± 0.7 ×10⁻⁶ cm/s		CCOC(=O)C1=C(C)NC(=S)NC1c1ccc(Cl)cc1 (stereo not shown) [T2]	IC50 (hERG): > 10 µM; remaining at 1 h (in vitro [2]): 77.7%; half-life (in vitro [3]): 2.36 h; microsomal CLint (in vitro [4]): 7.8 µL/min/mg
0.003 ± 0.001 ×10⁻⁶ cm/s		CCOC(=O)C1=C(C)NC(=O)NC1c1cccc(O)c1 (stereo not shown) [U13]	
17.7 ± 0.9 ×10⁻⁶ cm/s		CCOC(=O)C1=C(C)NC(=S)NC1c1cccc(O)c1 (stereo not shown) [T12]	
15.3 ± 1 ×10⁻⁶ cm/s		CCOC(=O)C1=C(C)NC(=O)NC1c1ccc(Cl)cc1Cl (stereo not shown) [U7]	
15.8 ± 0.5 ×10⁻⁶ cm/s		CCOC(=O)C1=C(C)NC(=O)NC1c1ccc(Cl)c(Cl)c1 (stereo not shown) [U5]	
	13.6 ± 0.5 ×10⁻⁶ cm/s	CC1=C(C(=O)Nc2ccc(Cl)cc2)C(c2ccc(Cl)c(Cl)c2)NC(=O)N1 (stereo not shown) [CU5]	
6.2 ± 0.3 ×10⁻⁶ cm/s		CCOC(=O)C1=C(C)NC(=O)NC1c1ccc(F)cc1 (stereo not shown) [U14]	
